Test results published in patent US20250230193A1, “CYCLIC COMPOUND HAVING SELECTIVE KRAS INHIBITORY EFFECT ON HRAS AND NRAS” (CHUGAI SEIYAKU KABUSHIKI KAISHA, priority 2022, published 2025).
Where a SMILES comes first, the peptide text is derived from it. Bridges are numbered along the chain shown (N, C = ends). [ ]: non-standard residue; d: D form. The star is where a group is joined. hPhe(3-Cl-4-CF3) = N[C@@H](CCc1ccc(C(F)(F)F)c(Cl)c1)C(=O)O; NPrPhe(4-CF3) = CCCN[C@@H](Cc1ccc(C(F)(F)F)cc1)C(=O)O; NMeGly(cPent) = CN[C@H](C(=O)O)C1CCCC1; Pro(4,4-F2) = O=C(O)[C@@H]1CC(F)(F)CN1; NMeD = CN[C@@H](CC(=O)O)C(=O)O; NMeL = CN[C@@H](CC(C)C)C(=O)O; Morpholide = C1CN(*)CCO1; Ac5c = NC1(C(=O)O)CCCC1; Aze = O=C(O)[C@@H]1CCN1; Ac4c = NC1(C(=O)O)CCC1; NEtG = CCNCC(=O)O; Sar = CNCC(=O)O

Tests used:
[1] = target: GDP-bound HRAS wild-type protein (Homo sapiens, UniProt P01112); experiment: Binding to HRAS by surface plasmon resonance (SPR), Single Cycle Kinetics; conditions: for HRAS/KRAS (ratio of KD value with respect to GDP-bound HRAS wild-type protein to KD value with respect to KRAS): class symbols
[2] = target: GDP-bound NRAS wild-type protein (Homo sapiens, UniProt P01111); experiment: Binding to NRAS by surface plasmon resonance (SPR), Single Cycle Kinetics; conditions: for NRAS/KRAS (ratio of KD value with respect to GDP-bound NRAS wild-type protein to KD value with respect to KRAS): class symbols
Chain of GDP-bound NRAS wild-type protein (P01111 whole entry): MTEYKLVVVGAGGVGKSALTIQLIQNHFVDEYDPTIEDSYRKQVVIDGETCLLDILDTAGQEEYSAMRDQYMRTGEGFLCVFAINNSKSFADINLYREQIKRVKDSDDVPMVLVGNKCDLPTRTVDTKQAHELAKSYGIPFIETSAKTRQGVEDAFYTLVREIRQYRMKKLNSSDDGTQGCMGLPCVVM

Chain of GDP-bound HRAS wild-type protein (P01112 whole entry): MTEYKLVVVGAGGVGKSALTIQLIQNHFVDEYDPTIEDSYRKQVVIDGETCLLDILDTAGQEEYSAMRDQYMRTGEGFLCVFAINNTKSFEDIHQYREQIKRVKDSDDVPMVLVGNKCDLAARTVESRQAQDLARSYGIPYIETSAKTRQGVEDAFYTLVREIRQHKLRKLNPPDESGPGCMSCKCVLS

Compound	HRAS/KRAS (ratio of KD value with respect to GDP-bound HRAS wild-type protein to KD value with respect to KRAS) [1]	NRAS/KRAS (ratio of KD value with respect to GDP-bound NRAS wild-type protein to KD value with respect to KRAS) [2]	HRAS/KRAS (ratio of KD for GDP-bound HRAS wild-type to KD for KRAS) ([1]; SPR)	NRAS/KRAS (ratio of KD for GDP-bound NRAS wild-type to KD for KRAS) ([2]; SPR)	also measured
CCC[C@H]1C(=O)N[C@@H]([C@@H](C)CC)C(=O)N(C2CC2)CC(=O)N(C)[C@H]2C/C=C\CCN(C2=O)[C@@H](Cc2ccc(C(F)(F)F)cc2)C(=O)N(C)CC(=O)N[C@@H](CCc2cc(F)c(C(F)(F)F)c(F)c2)C(=O)N2C[C@H](OCC)C[C@H]2C(=O)NC2(CC(C)(C)C2)C(=O)N(C)[C@@H](CC(C)(C)C)C(=O)N(C)[C@H](C(=O)N(C)C)CC(=O)N1C [PP2742]	A (a compound having 10 or more and less than 20 is denoted as A)	AA (a compound having 20 or more is denoted as AA)			
CCCC[C@H]1C(=O)N[C@@H]([C@@H](C)CC)C(=O)N(C)CC(=O)N(C)[C@H]2C/C=C\CCN(C2=O)[C@@H](Cc2ccc(C(F)(F)F)cc2)C(=O)N(C)CC(=O)N[C@@H](CCc2cc(F)c(C(F)(F)F)c(F)c2)C(=O)N2C[C@H](OCC)C[C@H]2C(=O)NC2(CC(F)(F)C2)C(=O)N(C)[C@@H](C2CCCC2)C(=O)N(C)[C@H](C(=O)N(C)C)CC(=O)N1C [PP1740]					HRAS/KRAS (ratio of KD value for HRAS to KD value for KRAS) ([1]; KD ratio, GDP-bound HRAS wild-type vs GDP-bound KRAS wild-type, SPR): A (a compound having 10 or more and less than 20 is denoted as A); NRAS/KRAS (ratio of KD value for NRAS to KD value for KRAS) ([2]; KD ratio, GDP-bound NRAS wild-type vs GDP-bound KRAS wild-type, SPR): A (a compound having 10 or more and less than 20 is denoted as A)
CC[C@H](C)[C@@H]1NC(=O)[C@H](CC(C)C)N(C)C(=O)C[C@@H](C(=O)N(C)C)N(C)C(=O)[C@H](C2CCCC2)N(C)C(=O)C2(CC(C)(C)C2)NC(=O)[C@@H]2C[C@H](C)CN2C(=O)[C@H](CCc2ccc(C(F)(F)F)c(OC)c2)NC(=O)CN(C)C(=O)[C@H](Cc2ccc(C)cc2)N2CC/C=C\C[C@@H](C2=O)N(C)C(=O)[C@@H]2CCCN2C1=O [PP2409]					HRAS/KRAS (ratio of KD value with respect to HRAS to KD value with respect to KRAS) ([1]; SPR, GDP-bound HRAS wild-type vs GDP-bound KRAS wild-type): B (a compound having 3 or more and less than 10 is denoted as B); NRAS/KRAS (ratio of KD value with respect to NRAS to KD value with respect to KRAS) ([2]; SPR, GDP-bound NRAS wild-type vs GDP-bound KRAS wild-type): A (a compound having 10 or more and less than 20 is denoted as A)
CCCN1C(=O)[C@@H]2CCN2C(=O)CN(C)C(=O)[C@H]([C@@H](C)CC)NC(=O)[C@H](CC(C)C)N(C)C(=O)C[C@@H](C(=O)N2CCOCC2)NC(=O)[C@H](C2CCCC2)N(C)C(=O)C2(CCC2)NC(=O)[C@@H]2CC(F)(F)CN2C(=O)[C@H](CCc2ccc(C(F)(F)F)c(Cl)c2)NC(=O)CN(C)C(=O)[C@@H]1Cc1ccc(C(F)(F)F)cc1 [PP0352] ([NMeL]I[Sar][Aze][NPrPhe(4-CF3)][Sar][hPhe(3-Cl-4-CF3)][Pro(4,4-F2)][Ac4c][NMeGly(cPent)]D-Morpholide; lactam N-11)			B (a compound having 3 or more and less than 10 is denoted as B)	C (A compound having a KD ratio of 0.1 or more and less than 3 is denoted as C)	
CCC[C@H]1C(=O)N[C@@H]([C@@H](C)CC)C(=O)N(C)CC(=O)N(C)[C@H]2C/C=C\CCN(C2=O)[C@@H](Cc2ccc(C(F)(F)F)cc2)C(=O)N(C)CC(=O)N[C@@H](CCc2ccc(C(F)(F)F)c(OC)c2)C(=O)N2CC[C@H]2C(=O)NC2(CC(C)(C)C2)C(=O)N(C)[C@@H](C(CC)CC)C(=O)N(C)[C@H](C(=O)N(C)C)CC(=O)N1C [PP2936]	A (a compound having 10 or more and less than 20 is denoted as A)	AA (a compound having 20 or more is denoted as AA)			
CCCN1C(=O)CN(C)C(=O)CN(C)C(=O)[C@H]([C@@H](C)CC)NC(=O)[C@H](CC(C)C)N(C)C(=O)C[C@@H](C(=O)N2CCOCC2)N(C)C(=O)[C@H](C2CCCC2)N(C)C(=O)C2(CCCC2)NC(=O)CN(CC)C(=O)[C@H](CCc2ccc(C(F)(F)F)c(Cl)c2)NC(=O)CN(C)C(=O)[C@@H]1Cc1ccc(C(F)(F)F)cc1 [PP0144] ([NMeL]I[Sar][Sar][NPrPhe(4-CF3)][Sar][hPhe(3-Cl-4-CF3)][NEtG][Ac5c][NMeGly(cPent)][NMeD]-Morpholide; lactam N-11)			C (A compound having a KD ratio of 0.1 or more and less than 3 is denoted as C)	B (a compound having 3 or more and less than 10 is denoted as B)	
